From patent US20250230193A1, “CYCLIC COMPOUND HAVING SELECTIVE KRAS INHIBITORY EFFECT ON HRAS AND NRAS” (CHUGAI SEIYAKU KABUSHIKI KAISHA, priority 2022, published 2025)
*1 amine or outer side, *2 acyl side, *3 side chain or, on linkers, in order; H or OH if unused. Where a SMILES comes first, the peptide text is derived from it. Bridges are numbered along the chain shown (N, C = ends). [ ]: non-standard residue; d: D form. The star is where a group is joined. hPhe(3,5-F2-4-CF3) = N[C@@H](CCc1cc(F)c(C(F)(F)F)c(F)c1)C(=O)O; NPrPhe(4-CF3) = CCCN[C@@H](Cc1ccc(C(F)(F)F)cc1)C(=O)O; NMeGly(cPent) = CN[C@H](C(=O)O)C1CCCC1; Ac4c(3,3-F2) = NC1(C(=O)O)CC(F)(F)C1; X9 = C[C@@](N[*:1])(C(=O)[*:2])C1CC1; X13 = CCC[C@](C)(N[*:1])C(=O)[*:2]; αMeCha = C[C@](N)(CC1CCCCC1)C(=O)O; αMeI = CC[C@H](C)[C@](C)(N)C(=O)O; αMeF = C[C@](N)(Cc1ccccc1)C(=O)O; NMeD = CN[C@@H](CC(=O)O)C(=O)O; Ac4c(3-oxa) = NC1(C(=O)O)COC1; NMeL = CN[C@@H](CC(C)C)C(=O)O; αMeL = CC(C)C[C@](C)(N)C(=O)O; αMeV = CC(C)[C@](C)(N)C(=O)O; αMeS = C[C@](N)(CO)C(=O)O; Sar = CNCC(=O)O; tBu = CC(C)(C)*; Allyl = C=CC*

Key:
[1] = target: GDP-bound NRAS wild-type protein (Homo sapiens, UniProt P01111); assay: Binding to NRAS by surface plasmon resonance (SPR), Single Cycle Kinetics; conditions: KD ratio NRAS/KRAS, SPR
Chain of GDP-bound NRAS wild-type protein (P01111 whole entry): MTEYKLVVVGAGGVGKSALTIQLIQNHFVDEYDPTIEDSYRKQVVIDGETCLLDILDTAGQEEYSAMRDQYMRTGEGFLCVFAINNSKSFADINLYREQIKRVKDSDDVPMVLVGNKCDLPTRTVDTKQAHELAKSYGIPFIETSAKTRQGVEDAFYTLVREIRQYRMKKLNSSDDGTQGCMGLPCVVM

[2] = target: GDP-bound HRAS wild-type protein (Homo sapiens, UniProt P01112); assay: Binding to HRAS by surface plasmon resonance (SPR), Single Cycle Kinetics; conditions: KD ratio HRAS/KRAS, SPR
Chain of GDP-bound HRAS wild-type protein (P01112 whole entry): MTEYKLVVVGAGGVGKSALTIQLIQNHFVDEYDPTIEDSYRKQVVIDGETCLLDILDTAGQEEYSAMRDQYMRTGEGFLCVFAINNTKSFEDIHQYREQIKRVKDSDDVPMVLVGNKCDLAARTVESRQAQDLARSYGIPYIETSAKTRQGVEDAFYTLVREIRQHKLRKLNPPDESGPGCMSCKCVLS

Compound	NRAS/KRAS (ratio of KD value with respect to GDP-bound NRAS wild-type protein to KD value with respect to KRAS) [1]	HRAS/KRAS (ratio of KD value with respect to GDP-bound HRAS wild-type protein to KD value with respect to KRAS) [2]
CCCN1C(=O)CN(C)C(=O)CN(C)C(=O)[C@H]([C@@H](C)CC)NC(=O)[C@H](CC(C)C)N(C)C(=O)C[C@@H](C(=O)N(C)C)N(C)C(=O)[C@H](C2CCCC2)N(C)C(=O)[C@](C)(C2CC2)NC(=O)[C@@H]2CCCN2C(=O)[C@H](CCc2cc(F)c(C(F)(F)F)c(F)c2)NC(=O)CN(C)C(=O)[C@@H]1Cc1ccc(C(F)(F)F)cc1 [PP0734] ([NMeL]I[Sar][Sar][NPrPhe(4-CF3)][Sar][hPhe(3,5-F2-4-CF3)]P[X9][NMeGly(cPent)][NMeD]-NMe2; lactam N-11)	B (a compound having 3 or more and less than 10 is denoted as B)	C (A compound having a KD ratio of 0.1 or more and less than 3 is denoted as C)
CCCN1C(=O)CN(C)C(=O)CN(C)C(=O)[C@H]([C@@H](C)CC)NC(=O)[C@H](CC(C)C)N(C)C(=O)C[C@@H](C(=O)N(C)C)N(C)C(=O)[C@H](C2CCCC2)N(C)C(=O)[C@](C)(C(C)C)NC(=O)[C@@H]2CCCN2C(=O)[C@H](CCc2cc(F)c(C(F)(F)F)c(F)c2)NC(=O)CN(C)C(=O)[C@@H]1Cc1ccc(C(F)(F)F)cc1 [PP0735] ([NMeL]I[Sar][Sar][NPrPhe(4-CF3)][Sar][hPhe(3,5-F2-4-CF3)]P[αMeV][NMeGly(cPent)][NMeD]-NMe2; lactam N-11)	B (a compound having 3 or more and less than 10 is denoted as B)	C (A compound having a KD ratio of 0.1 or more and less than 3 is denoted as C)
CCCN1C(=O)CN(C)C(=O)CN(C)C(=O)[C@H]([C@@H](C)CC)NC(=O)[C@H](CC(C)C)N(C)C(=O)C[C@@H](C(=O)N(C)C)N(C)C(=O)[C@H](C2CCCC2)N(C)C(=O)[C@](C)([C@@H](C)CC)NC(=O)[C@@H]2CCCN2C(=O)[C@H](CCc2cc(F)c(C(F)(F)F)c(F)c2)NC(=O)CN(C)C(=O)[C@@H]1Cc1ccc(C(F)(F)F)cc1 [PP0736] ([NMeL]I[Sar][Sar][NPrPhe(4-CF3)][Sar][hPhe(3,5-F2-4-CF3)]P[αMeI][NMeGly(cPent)][NMeD]-NMe2; lactam N-11)	B (a compound having 3 or more and less than 10 is denoted as B)	C (A compound having a KD ratio of 0.1 or more and less than 3 is denoted as C)
CCCN1C(=O)CN(C)C(=O)CN(C)C(=O)[C@H]([C@@H](C)CC)NC(=O)[C@H](CC(C)C)N(C)C(=O)C[C@@H](C(=O)N(C)C)N(C)C(=O)[C@H](C2CCCC2)N(C)C(=O)[C@](C)(CCC)NC(=O)[C@@H]2CCCN2C(=O)[C@H](CCc2cc(F)c(C(F)(F)F)c(F)c2)NC(=O)CN(C)C(=O)[C@@H]1Cc1ccc(C(F)(F)F)cc1 [PP0737] ([NMeL]I[Sar][Sar][NPrPhe(4-CF3)][Sar][hPhe(3,5-F2-4-CF3)]P[X13][NMeGly(cPent)][NMeD]-NMe2; lactam N-11)	B (a compound having 3 or more and less than 10 is denoted as B)	C (A compound having a KD ratio of 0.1 or more and less than 3 is denoted as C)
CCCN1C(=O)CN(C)C(=O)CN(C)C(=O)[C@H]([C@@H](C)CC)NC(=O)[C@H](CC(C)C)N(C)C(=O)C[C@@H](C(=O)N(C)C)N(C)C(=O)[C@H](C2CCCC2)N(C)C(=O)[C@](C)(CC(C)C)NC(=O)[C@@H]2CCCN2C(=O)[C@H](CCc2cc(F)c(C(F)(F)F)c(F)c2)NC(=O)CN(C)C(=O)[C@@H]1Cc1ccc(C(F)(F)F)cc1 [PP0738] ([NMeL]I[Sar][Sar][NPrPhe(4-CF3)][Sar][hPhe(3,5-F2-4-CF3)]P[αMeL][NMeGly(cPent)][NMeD]-NMe2; lactam N-11)	B (a compound having 3 or more and less than 10 is denoted as B)	B (a compound having 3 or more and less than 10 is denoted as B)
CCCN1C(=O)CN(C)C(=O)CN(C)C(=O)[C@H]([C@@H](C)CC)NC(=O)[C@H](CC(C)C)N(C)C(=O)C[C@@H](C(=O)N(C)C)N(C)C(=O)[C@H](C2CCCC2)N(C)C(=O)[C@](C)(CC2CCCCC2)NC(=O)[C@@H]2CCCN2C(=O)[C@H](CCc2cc(F)c(C(F)(F)F)c(F)c2)NC(=O)CN(C)C(=O)[C@@H]1Cc1ccc(C(F)(F)F)cc1 [PP0739] ([NMeL]I[Sar][Sar][NPrPhe(4-CF3)][Sar][hPhe(3,5-F2-4-CF3)]P[αMeCha][NMeGly(cPent)][NMeD]-NMe2; lactam N-11)	B (a compound having 3 or more and less than 10 is denoted as B)	C (A compound having a KD ratio of 0.1 or more and less than 3 is denoted as C)
CCCN1C(=O)CN(C)C(=O)CN(C)C(=O)[C@H]([C@@H](C)CC)NC(=O)[C@H](CC(C)C)N(C)C(=O)C[C@@H](C(=O)N(C)C)N(C)C(=O)[C@H](C2CCCC2)N(C)C(=O)[C@](C)(Cc2ccccc2)NC(=O)[C@@H]2CCCN2C(=O)[C@H](CCc2cc(F)c(C(F)(F)F)c(F)c2)NC(=O)CN(C)C(=O)[C@@H]1Cc1ccc(C(F)(F)F)cc1 [PP0740] ([NMeL]I[Sar][Sar][NPrPhe(4-CF3)][Sar][hPhe(3,5-F2-4-CF3)]P[αMeF][NMeGly(cPent)][NMeD]-NMe2; lactam N-11)	B (a compound having 3 or more and less than 10 is denoted as B)	C (A compound having a KD ratio of 0.1 or more and less than 3 is denoted as C)
CCCN1C(=O)CN(C)C(=O)CN(C)C(=O)[C@H]([C@@H](C)CC)NC(=O)[C@H](CC(C)C)N(C)C(=O)C[C@@H](C(=O)N(C)C)N(C)C(=O)[C@H](C2CCCC2)N(C)C(=O)[C@](C)(COC)NC(=O)[C@@H]2CCCN2C(=O)[C@H](CCc2cc(F)c(C(F)(F)F)c(F)c2)NC(=O)CN(C)C(=O)[C@@H]1Cc1ccc(C(F)(F)F)cc1 [PP0741] ([NMeL]I[Sar][Sar][NPrPhe(4-CF3)][Sar][hPhe(3,5-F2-4-CF3)]P[αMeS](Me)[NMeGly(cPent)][NMeD]-NMe2; lactam N-11)	B (a compound having 3 or more and less than 10 is denoted as B)	B (a compound having 3 or more and less than 10 is denoted as B)
C=CCOC[C@]1(C)NC(=O)[C@@H]2CCCN2C(=O)[C@H](CCc2cc(F)c(C(F)(F)F)c(F)c2)NC(=O)CN(C)C(=O)[C@H](Cc2ccc(C(F)(F)F)cc2)N(CCC)C(=O)CN(C)C(=O)CN(C)C(=O)[C@H]([C@@H](C)CC)NC(=O)[C@H](CC(C)C)N(C)C(=O)C[C@@H](C(=O)N(C)C)N(C)C(=O)[C@H](C2CCCC2)N(C)C1=O [PP0742] ([NMeL]I[Sar][Sar][NPrPhe(4-CF3)][Sar][hPhe(3,5-F2-4-CF3)]P[αMeS](Allyl)[NMeGly(cPent)][NMeD]-NMe2; lactam N-11)	B (a compound having 3 or more and less than 10 is denoted as B)	B (a compound having 3 or more and less than 10 is denoted as B)
CCCN1C(=O)CN(C)C(=O)CN(C)C(=O)[C@H]([C@@H](C)CC)NC(=O)[C@H](CC(C)C)N(C)C(=O)C[C@@H](C(=O)N(C)C)N(C)C(=O)[C@H](C2CCCC2)N(C)C(=O)[C@](C)(COC(C)(C)C)NC(=O)[C@@H]2CCCN2C(=O)[C@H](CCc2cc(F)c(C(F)(F)F)c(F)c2)NC(=O)CN(C)C(=O)[C@@H]1Cc1ccc(C(F)(F)F)cc1 [PP0743] ([NMeL]I[Sar][Sar][NPrPhe(4-CF3)][Sar][hPhe(3,5-F2-4-CF3)]P[αMeS](tBu)[NMeGly(cPent)][NMeD]-NMe2; lactam N-11)	B (a compound having 3 or more and less than 10 is denoted as B)	C (A compound having a KD ratio of 0.1 or more and less than 3 is denoted as C)
CCCN1C(=O)CN(C)C(=O)CN(C)C(=O)[C@H]([C@@H](C)CC)NC(=O)[C@H](CC(C)C)N(C)C(=O)C[C@@H](C(=O)N(C)C)N(C)C(=O)[C@H](C2CCCC2)N(C)C(=O)C2(COC2)NC(=O)[C@@H]2CCCN2C(=O)[C@H](CCc2cc(F)c(C(F)(F)F)c(F)c2)NC(=O)CN(C)C(=O)[C@@H]1Cc1ccc(C(F)(F)F)cc1 [PP0744] ([NMeL]I[Sar][Sar][NPrPhe(4-CF3)][Sar][hPhe(3,5-F2-4-CF3)]P[Ac4c(3-oxa)][NMeGly(cPent)][NMeD]-NMe2; lactam N-11)	B (a compound having 3 or more and less than 10 is denoted as B)	B (a compound having 3 or more and less than 10 is denoted as B)
CCCN1C(=O)CN(C)C(=O)CN(C)C(=O)[C@H]([C@@H](C)CC)NC(=O)[C@H](CC(C)C)N(C)C(=O)C[C@@H](C(=O)N(C)C)N(C)C(=O)[C@H](C2CCCC2)N(C)C(=O)C2(CC(F)(F)C2)NC(=O)[C@@H]2CCCN2C(=O)[C@H](CCc2cc(F)c(C(F)(F)F)c(F)c2)NC(=O)CN(C)C(=O)[C@@H]1Cc1ccc(C(F)(F)F)cc1 [PP0745] ([NMeL]I[Sar][Sar][NPrPhe(4-CF3)][Sar][hPhe(3,5-F2-4-CF3)]P[Ac4c(3,3-F2)][NMeGly(cPent)][NMeD]-NMe2; lactam N-11)	B (a compound having 3 or more and less than 10 is denoted as B)	C (A compound having a KD ratio of 0.1 or more and less than 3 is denoted as C)
